Source: publication PMC8549013 (Neuropharmacology, 2021)

Assays:
[1] = tested on: hDAT; conditions: same technique, ref Steele and Eltit, 2019; cited from earlier work
[2] = tested on: NET; conditions: rat brain synaptosomes; ref Gannon et al., 2018; cited from earlier work
[3] = molecular target: A117S/D121G/P323V/F318C dDAT (quadruple dDAT mutant) (Drosophila melanogaster, UniProt Q7K4Y6, A117S/D121G/F318C/P323V); test: MAT-Ca2+ assay: inhibition of DA-induced Ca2+ signals; type: cell-based
[4] = molecular target: wt dDAT (Drosophila melanogaster, UniProt Q7K4Y6); test: as above; type: cell-based; conditions: DA 10 μM; for pIC50 ± SEM: bottom of fit constrained to zero for MDPV
[5] = molecular target: wt hDAT (Homo sapiens, UniProt Q01959); test: as above; type: cell-based; conditions: DA 10 μM; for pIC50 ± SEM: ~35°C, Table 2
[6] = molecular target: A117S/D121G/P323V dDAT (triple dDAT mutant) (Drosophila melanogaster, UniProt Q7K4Y6, A117S/D121G/P323V); test: as above; type: cell-based
[7] = molecular target: A117S dDAT mutant (Drosophila melanogaster, UniProt Q7K4Y6, A117S); test: as above; type: cell-based
[8] = molecular target: D121G dDAT mutant (Drosophila melanogaster, UniProt Q7K4Y6, D121G); test: as above; type: cell-based
[9] = molecular target: A117S/D121G dDAT mutant (Drosophila melanogaster, UniProt Q7K4Y6, A117S/D121G); test: as above; type: cell-based
[10] = molecular target: F318C dDAT mutant (Drosophila melanogaster, UniProt Q7K4Y6, F318C); test: as above; type: cell-based
[11] = molecular target: P323V dDAT mutant (Drosophila melanogaster, UniProt Q7K4Y6, P323V); test: as above; type: cell-based
[12] = tested on: human dopamine transporter (hDAT); conditions: ref Baumann et al., 2013; Cameron et al., 2013b; Steele and Eltit, 2019; cited from earlier work
[13] = Table 2 dataset, with DA pre-pulse
[14] = Table 1 dataset, without DA pre-pulse

| SMILES | weaker inhibiting uptake at NET than at DAT [2] | IC50 [3, 13] | pIC50 ± SEM [3, 13] | IC50 [4] | pIC50 ± SEM [4] | IC50 [5] | pIC50 ± SEM [5] | IC50 [6, 13] | pIC50 ± SEM [6, 13] | IC50 ([6]; Table 2 dataset) | further results |
| --- | --- | --- | --- | --- | --- | --- | --- | --- | --- | --- | --- |
| NCCc1ccc(O)c(O)c1 [DA, dopamine] | – | – | – | – | – | – | – | – | – | – | pEC50 of DA to produce Ca2+ signals [1]: 5.89 ± 0.04 |
| CC(C(=O)c1ccc2c(c1)OCO2)N1CCCC1 (stereo not drawn) [MDPPP, 3,4-methylenedioxy-α-pyrrolidinopropiophenone] | ~ 5 fold | 13 µM | 4.89 ± 0.01 M | > 30 µM | Inactive | 3.42 µM | 5.47 ± 0.02 M | 16 µM | 4.80 ± 0.02 M | – | – |
| CCCC(C(=O)c1ccc2c(c1)OCO2)N1CCCC1 (stereo not drawn) [MDPV, 3,4-Methylenedioxypyrovalerone] | ~ 4 fold | 0.251 µM | 6.60 ± 0.04 M | 27.4 µM | 4.56 ± 0.02 M | 0.034 µM | 7.47 ± 0.01 M | 1.21 µM | 5.92 ± 0.02 M | 1.21 µM | IC50 ([7]; A117S dDAT): 8.39 µM; pIC50 ± SEM ([7]; A117S dDAT): 5.08 ± 0.04 M; improvement in potency vs wt dDAT ([7]; A117S dDAT vs wt dDAT): ~ 3 fold; IC50 ([3]; Table 1 dataset): 0.25 µM; IC50 [3, 14]: 0.253 µM; pIC50 ± SEM [3, 14]: 6.60 ± 0.03 M; IC50 [8]: 4.65 µM; pIC50 ± SEM [8]: 5.33 ± 0.04 M; IC50 [9]: 2.21 µM; pIC50 ± SEM [9]: 5.66 ± 0.04 M; IC50 ([10]; F318C dDAT): 8.24 µM; pIC50 ± SEM ([10]; F318C dDAT): 5.08 ± 0.02 M; improvement in potency vs wt dDAT ([10]; F318C dDAT vs wt dDAT): ~ 3 fold; IC50 ([11]; P323V dDAT): 9.69 µM; pIC50 ± SEM ([11]; P323V dDAT): 5.01 ± 0.03 M; improvement in potency vs wt dDAT ([11]; P323V dDAT vs wt dDAT): ~ 3 fold; more potent than cocaine in blocking DA uptake through DAT [12]: ~ 50 fold; IC50 ([6]; Table 1 dataset): 1.18 µM; IC50 [6, 14]: 1.18 µM; pIC50 ± SEM [6, 14]: 5.93 ± 0.02 M |
| CCCC(C(=O)c1ccccc1)N1CCCC1 (stereo not drawn) [α-PVP, α-pyrrolidinovalerophenone] | equipotent | 1.09 µM | 5.96 ± 0.03 M | 20.7 µM | 4.68 ± 0.03 M | 0.051 µM | 7.29 ± 0.01 M | 1.53 µM | 5.82 ± 0.03 M | 1.53 µM | IC50 ([3]; Table 2 dataset): 1.09 µM |
